“And” between values parts separate entries of the source, which are not always exact repeats. Equal values may be shown once.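 Protocol summary: plate cells (96-well), add compound at 5 concentrations, incubate 48 h, interpolate endpoints linearly. GI50 = concentration required for 50% inhibition of growth. TGI: total growth inhibition.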 A value given as a limit tells only on which side of the number the result lay.

The results in this text go back to PubChem BioAssay (NCI).

Common to all, as to assay: NCI tumour cell line growth inhibition, 48 h
Assay [1] concerns HOP-18 NSCLC.
For assay [2], the system named is XF 498 CNS.
Assay [3] relates to DMS 273 small cell lung.
Assay [4] relates to KM20L2 colon.
The test system of assay [5] is M19-MEL melanoma.
Assay [6] concerns LXFL 529 NSCLC.
The test system of assay [7] is DLD-1 colon.
The test system of assay [8] is P388/ADR leukemia.
The test system of assay [9] is P388 leukemia.
Assay [10] concerns RXF-631 renal.
The subject of assay [11] is MDA-N.

Turning to `CC1=C[P+](Cc2ccccc2)(c2ccccc2)CC1` (configuration not stated), the TGI in assay [1] was over 100 µM; in assay [2], 78.2 µM; in [3], over 100 µM; in assay [4] it was over 100 µM; in assay [5], over 100 µM; in assay [6], over 100 µM. In [7], the TGI was over 100 µM. The GI50 in assay [2] is 25 µM.
Consider `COc1cc(O)c2c(c1)C(=O)c1cc3c(c(O)c1C2=O)C(OC1OC(C)C(O)C(O)C1OC)C(OC)C(C)(O)C3=O` (configuration not stated), for which the TGI stood at 15.4 µM in assay [1]; 7.13 µM in assay [2]; 3.85 µM in assay [3]; 59.6 µM in [8]; 6 µM in assay [4]; 1.83 µM in assay [5]. Moreover, the TGI in assay [7] is 11.6 µM; in [9], 25.2 µM.
Consider `O=C1CC(O)(c2ccccc2)C(c2ccccc2)=C1c1ccccc1` (configuration not stated), for which the TGI was 73.5 µM in [2]; over 100 µM in assay [3]; over 100 µM in [4]; 91.4 µM in assay [5]; over 100 µM in assay [6]; over 100 µM in [7].
Take `CCOc1ccc(NC(=O)C2=C(C)NC(C)=C(C(=O)Nc3ccc(OCC)cc3)C2c2ccccc2)cc1`: the TGI in [10], in [2], in assay [3], in assay [4], in assay [5] and in assay [6] was over 100 µM in each case. In assay [7], the TGI is over 100 µM.
As to `Clc1cc2n[se]nc2cc1Cl`, the TGI in [1], in assay [10], in assay [2], in [3], in assay [4] and in assay [5] was over 100 µM in each case. The TGI in assay [6] and in [7] was over 100 µM each time.
Consider `CCC[CH2][Sn]1([CH2]CCC)[O]C(=O)c2ccc(C)cc2[O]1`, for which the GI50 in assay [1] is 1.01 µM; in [10] it was 0.138 µM; in assay [3] it was 0.55 µM; in assay [4] it was 1.21 µM; in [5], 0.322 µM; in assay [6], 0.158 µM. The GI50 in assay [7] was 0.658 µM. The TGI in assay [1] was 2.19 µM; in assay [10], 0.32 µM; in assay [3], 2.62 µM; in assay [4], 2.46 µM; in assay [5] it was 1.33 µM; in assay [6], 0.372 µM. For the same compound, the TGI in assay [7] was 1.98 µM.
Consider `CSc1ncnc2c1ncn2C1OC(CO)C(O)OC1O` (configuration not stated), for which the TGI in assay [11] was found to be 27.7 µM.
For the compound `COC1CC(NC(=O)C(F)(F)F)C(OC(C)=O)C(C)O1` (configuration not stated), the TGI in [11] is over 100 µM.
For the compound `CCOC(=O)C(C)(C)C(O)C(C)C` (configuration not stated), in assay [11], the TGI was over 100 µM.
In the case of `C[n+]1ccc(-c2c3nc(c(-c4cc[n+](C)cc4)c4ccc([n-]4)c(-c4cc[n+](C)cc4)c4nc(c(-c5cc[n+](C)cc5)c5ccc2[n-]5)C=C4)C=C3)cc1.[I-].[Zn+2]`, the GI50 in assay [1] is 16.9 µM; in assay [10], 17.1 µM; in [3], 33.7 µM; in [4], 23.1 µM; in [5], 10.3 µM; in assay [6] it was 20.1 µM. Further, the GI50 in assay [7] was 29.3 µM. The TGI is 41.3 µM in [1]; 46.8 µM in assay [10]; over 100 µM in assay [3]; over 100 µM in assay [4]; 28.3 µM in assay [5]; 43 µM in [6]. For the same compound, the TGI in assay [7] was 84.3 µM.
In the case of `CSCCOC(=O)C(=[N+]=[N-])c1ccc([N+](=O)[O-])cc1`, the TGI in assay [2], in assay [3], in assay [4], in assay [6] and in [7] was over 100 µM in each case.
As for `NCCN1C(=O)C2C3c4ccccc4C(c4ccccc43)C2C1=O` (configuration not stated), the TGI in assay [1], in assay [3], in assay [4], in [5], in assay [6] and in [7] was over 100 µM in each case.
For the compound `COc1cc2c(cc1OC)C(=O)Cc1ccc(OC)c(OC)c1CN(C)CC2`, the TGI in [1], in assay [10], in assay [2], in assay [3], in [4] and in assay [5] was over 100 µM each time. Besides, the TGI in assay [6] and in assay [7] was over 100 µM in each case.
For `OC1C2CCC1C1C3C=CC(C3)C21` (configuration not stated), the TGI in assay [1], in assay [2], in assay [3], in [4], in [5] and in assay [6] was over 100 µM throughout. The compound further gave a TGI in assay [7] of over 100 µM.
For `CCOC(=O)c1ccc(NC(=O)SCCC(=O)O)cc1`, the TGI in [3], in [4], in assay [6] and in [7] was over 100 µM in each case.
In the case of `CC1(C)CCC(C)(C)c2c1ccc(O)c2Cc1c(O)ccc2c1C(C)(C)CCC2(C)C`, the TGI in [11] amounted to 3.73 µM.
With `c1ccc2c(c1)[nH]c1c2nc2ncccn21`, the TGI in assay [10], in assay [2], in assay [3], in assay [4], in [5] and in assay [6] was over 100 µM each time. The TGI in assay [7] is over 100 µM.
Consider `O=S(O)CCCSSc1ccccc1`, for which the TGI in assay [1], in assay [2], in assay [3], in assay [4], in assay [5] and in [6] was over 100 µM throughout. Moreover, in [7], the TGI is over 100 µM.
Turning to `O=c1c2ccccc2c2ccccc2c(=O)n1Cc1ccc2c(c1)OCO2`, in assay [11], the TGI is 28.7 µM.
For the compound `CCOC(=O)/C(C#N)=C1/C(O)=C(C(=O)OC)C(C(=O)OC)=C1C(=O)OC`, the TGI in assay [3], in [4], in [5], in [6] and in [7] was over 100 µM in each case.
As for `O=C(NCC(O)CNC(=O)C(F)(F)F)C(F)(F)F`, the TGI in assay [1], in assay [2], in assay [3], in assay [4], in [5] and in assay [6] was over 100 µM in each case. This compound yielded a TGI in assay [7] of over 100 µM.
On to `COc1ccc(OC)c(-c2cc(=O)c3c(OC)c(OC)c(OC)c(OC)c3o2)c1`, for which the TGI in [11] is over 100 µM.
For `Cc1cc2c(c3oc(C4(C)OC4C4OC4C)cc(=O)c13)C(=O)c1c(O)c(C3CC(C)(N(C)C)C(O)C(C)O3)cc(C3CC(N(C)C)C(O)C(C)O3)c1C2=O` (configuration not stated), the TGI in [1] is 0.00334 µM; in assay [10], 0.123 µM; in assay [11], 0.000228 µM; in assay [2] it was 0.00068 µM; in [3] it was 0.000406 µM and 0.00252 µM; in assay [6], 0.0117 µM. In addition, the GI50 was 0.000187 µM in assay [2] and 0.00017 µM in assay [7].
As to `Cc1nn(C)cc1P(=S)(c1ccccc1)c1ccccc1`, the TGI in [1], in assay [2], in [3], in [4], in [5] and in assay [6] was over 100 µM in each case. For the same compound, the TGI in assay [7] is over 100 µM.
As for `N#CS.N=C=S.N=C=S.[Cu+2].[NH2-].[NH2-].[NH2-].[NH2-].c1ccc2ncccc2c1`, in assay [11], the GI50 was over 100 µM and the TGI is over 100 µM.
As for `COc1ccc2c(c1OC)OCC(CN(C)C)C2=O` (configuration not stated), in assay [11], the TGI amounted to 32.4 µM.
In the case of `NC1=NCCN1CC(=O)O`, the TGI in [11] is over 10000 µM.
In assay [11], `CCCCCCCCCCCCCCCCOP(=O)(O)OP(=O)(O)OCC1OC(n2ccc(N)nc2=O)C(O)C1O` (configuration not stated) gave a TGI of over 100 µM.
As for `NC(N)=NS(=O)(=O)c1ccc(Nc2c3ccccc3nc3c(C(=O)Nc4ccc(S(N)(=O)=O)cc4)ccc(Cl)c23)cc1`, the TGI in assay [1], in assay [10], in assay [2], in assay [3], in [4] and in assay [5] was over 100 µM throughout. Moreover, the TGI in [6] and in [7] was over 100 µM throughout.
For `CC1OC(OC2C(CO)OC(O[C@H]3CC[C@@]4(C)C(=CC[C@H]5[C@@H]6C[C@@H]7O[C@]8(CC[C@@H](C)CN8)[C@@H](C)[C@@H]7[C@@]6(C)CC[C@@H]54)C3)C(O)C2O)C(O)C(O)C1O` (some centres not stated), the TGI in assay [1], in assay [2], in assay [3], in [4], in assay [5] and in assay [6] was over 100 µM each time. Also, in [7], the TGI is over 100 µM.
Take `Fc1cccc2c1cc1ccc3cccc4ccc2c1c34`: the TGI in assay [1], in assay [2], in [3], in assay [4], in assay [5] and in assay [6] was over 100 µM in each case. In assay [7], this compound returned a TGI of over 100 µM.
Consider `O=C1c2ccccc2C(=O)N1C/C=C/CO`, for which the TGI in assay [1], in assay [3], in assay [4], in assay [5], in assay [6] and in assay [7] was over 100 µM each time.
Take `S=C(N/N=C(/c1ccccc1)c1ccccn1)N1CCCCCC1`: in [11], the GI50 was 0.217 µM; the TGI is 2.32 µM and 1.72 µM.
As for `CCOc1ccccc1NC(=O)CCc1n[nH]c(=S)o1`, the TGI in assay [2], in [3], in [4], in [5], in assay [6] and in assay [7] was over 100 µM in each case.
In the case of `COC(=O)c1ccc(Cl)cc1NC(=O)C1CCCCC1`, the TGI in assay [3], in [4], in assay [5] and in assay [6] was over 100 µM in each case.
Consider `CC[C@@H]1C[C@H]2CC3c4[nH]c5ccc(O)cc5c4CCN(C2)C31`, for which the TGI in assay [1], in assay [10], in assay [2], in [3], in assay [4] and in [5] was over 100 µM each time. In assay [6], this compound came in with a TGI of over 100 µM.
Take `CN(C)CCOC(c1ccccc1)c1ccccc1`: in assay [11], the GI50 is 29.4 µM; the TGI was 50.1 µM and > 100 µM.
In the case of `O=c1oc2ccc(-n3c(=O)c4ccccc4c4ccccc4c3=O)cc2c2ccccc12`, the TGI in [11] is over 100 µM.
With `O=C(COC(=O)c1cccc2c(=O)c3ccccc3[nH]c12)Nc1ccccc1`, the TGI is over 100 µM in [1]; 99 µM in [10]; 74.4 µM in assay [2]; over 100 µM in assay [3]; over 100 µM in [4]; over 100 µM in assay [5]. Further, the TGI in assay [6] and in assay [7] was over 100 µM throughout.
As for `N#C/C(=C/Sc1ccccc1)C(=O)O`, the TGI in assay [1] is over 100 µM; in [2] it was over 100 µM; in assay [3] it was 72.6 µM; in [4] it was 91.2 µM; in assay [5], 74 µM; in assay [6], over 100 µM. Further, the TGI in assay [7] is over 100 µM.
